Experimental data taken from ChEMBL document CHEMBL1154382, “Preliminary SAR analysis of novel antiproliferative N(6),5'-bis-ureidoadenosine derivatives” (2009).
The source made the active and inactive calls.

Tests used:
Type in all cases: functional
CCRF-CEM = test: Antiproliferative activity against human CCRF-CEM cells at 10 uM assessed as cell growth inhibition relative to control
HL-60(TB) = test: Antiproliferative activity against human HL-60(TB) cells at 10 uM assessed as cell growth inhibition relative to control
K562 = test: Antiproliferative activity against human K562 cells at 10 uM assessed as cell growth inhibition relative to control
MOLT-4 = test: Antiproliferative activity against human MOLT4 cells at 10 uM assessed as cell growth inhibition relative to control
RPMI8266 = test: Antiproliferative activity against human […] cells at 10 uM assessed as cell growth inhibition relative to control
A549 = test: Antiproliferative activity against human A549 cells at 10 uM assessed as cell growth inhibition relative to control
EKVX = test: Antiproliferative activity against human EKVX cells at 10 uM assessed as cell growth inhibition relative to control
PC-3 = test: Antiproliferative activity against human PC3 cells at 10 uM assessed as cell growth inhibition relative to control
HOP-62 = test: Antiproliferative activity against human HOP62 cells at 10 uM assessed as cell growth inhibition relative to control
HOP-92 = test: Antiproliferative activity against human HOP92 cells at 10 uM assessed as cell growth inhibition relative to control
NCI-H226 = test: Antiproliferative activity against human NCI-H226 cells at 10 uM assessed as cell growth inhibition relative to control
NCI-H23 = test: Antiproliferative activity against human NCI-H23 cells at 10 uM assessed as cell growth inhibition relative to control
NCI-H322M = test: Antiproliferative activity against human NCI-H322M cells at 10 uM assessed as cell growth inhibition relative to control
NCI-H460 = test: Antiproliferative activity against human NCI-H460 cells at 10 uM assessed as cell growth inhibition relative to control
NCI-H522 = test: Antiproliferative activity against human NCI-H522 cells at 10 uM assessed as cell growth inhibition relative to control
COLO 205 = test: Antiproliferative activity against human COLO205 cells at 10 uM assessed as cell growth inhibition relative to control
HCC 2998 = test: Antiproliferative activity against human HCC2998 cells at 10 uM assessed as cell growth inhibition relative to control
HCT-116 = test: Antiproliferative activity against human HCT116 cells at 10 uM assessed as cell growth inhibition relative to control
HCT-15 = test: Antiproliferative activity against human HCT15 cells at 10 uM assessed as cell growth inhibition relative to control
HT-29 = test: Antiproliferative activity against human HT-29 cells at 10 uM assessed as cell growth inhibition relative to control
KM12 = test: Antiproliferative activity against human KM12 cells at 10 uM assessed as cell growth inhibition relative to control
SW-620 = test: Antiproliferative activity against human SW620 cells at 10 uM assessed as cell growth inhibition relative to control
LOX IMVI = test: Antiproliferative activity against human LOXIMVI cells at 10 uM assessed as cell growth inhibition relative to control
Malme-3M = test: Antiproliferative activity against human MALME-3M cells at 10 uM assessed as cell growth inhibition relative to control
M14 = test: Antiproliferative activity against human M14 cells at 10 uM assessed as cell growth inhibition relative to control
SK-MEL-2 = test: Antiproliferative activity against human SK-MEL-2 cells at 10 uM assessed as cell growth inhibition relative to control
SK-MEL-28 = test: Antiproliferative activity against human SK-MEL-28 cells at 10 uM assessed as cell growth inhibition relative to control
SK-MEL-5 = test: Antiproliferative activity against human SK-MEL-5 cells at 10 uM assessed as cell growth inhibition relative to control
UACC-257 = test: Antiproliferative activity against human UACC257 cells at 10 uM assessed as cell growth inhibition relative to control
UACC-62 = test: Antiproliferative activity against human UACC62 cells at 10 uM assessed as cell growth inhibition relative to control
SF-268 = test: Antiproliferative activity against human SF268 cells at 10 uM assessed as cell growth inhibition relative to control
SF-295 = test: Antiproliferative activity against human SF295 cells at 10 uM assessed as cell growth inhibition relative to control
SF-539 = test: Antiproliferative activity against human SF539 cells at 10 uM assessed as cell growth inhibition relative to control
SNB-19 = test: Antiproliferative activity against human SNB19 cells at 10 uM assessed as cell growth inhibition relative to control
SNB-75 = test: Antiproliferative activity against human SNB75 cells at 10 uM assessed as cell growth inhibition relative to control
U-251 = test: Antiproliferative activity against human U251 cells at 10 uM assessed as cell growth inhibition relative to control
IGROV-1 = test: Antiproliferative activity against human IGROV1 cells at 10 uM assessed as cell growth inhibition relative to control
OVCAR-3 = test: Antiproliferative activity against human OVCAR-3 cells at 10 uM assessed as cell growth inhibition relative to control
OVCAR-4 = test: Antiproliferative activity against human OVCAR4 cells at 10 uM assessed as cell growth inhibition relative to control
OVCAR-5 = test: Antiproliferative activity against human OVCAR5 cells at 10 uM assessed as cell growth inhibition relative to control
OVCAR-8 = test: Antiproliferative activity against human OVCAR8 cells at 10 uM assessed as cell growth inhibition relative to control
SK-OV-3 = test: Antiproliferative activity against human SKOV3 cells at 10 uM assessed as cell growth inhibition relative to control
786-0 = test: Antiproliferative activity against human 786-0 cells at 10 uM assessed as cell growth inhibition relative to control
A498 = test: Antiproliferative activity against human A498 cells at 10 uM assessed as cell growth inhibition relative to control
ACHN = test: Antiproliferative activity against human ACHN cells at 10 uM assessed as cell growth inhibition relative to control
CAKI-1 = test: Antiproliferative activity against human Caki1 cells at 10 uM assessed as cell growth inhibition relative to control
RXF 393 = test: Antiproliferative activity against human RXF393 cells at 10 uM assessed as cell growth inhibition relative to control
SN12C = test: Antiproliferative activity against human SN12C cells at 10 uM assessed as cell growth inhibition relative to control
TK-10 = test: Antiproliferative activity against human TK10 cells at 10 uM assessed as cell growth inhibition relative to control
UO-31 = test: Antiproliferative activity against human UO31 cells at 10 uM assessed as cell growth inhibition relative to control
BT-549 = test: Antiproliferative activity against human BT549 cells at 10 uM assessed as cell growth inhibition relative to control
Hs-578T = test: Antiproliferative activity against human Hs 578T cells at 10 uM assessed as cell growth inhibition relative to control
MCF7 = test: Antiproliferative activity against human MCF7 cells at 10 uM assessed as cell growth inhibition relative to control
MDA-MB-231 = test: Antiproliferative activity against human MDA-MB-231 cells at 10 uM assessed as cell growth inhibition relative to control
MDA-MB-468 = test: Antiproliferative activity against human MDA-MB-468 cells at 10 uM assessed as cell growth inhibition relative to control
T47D = test: Antiproliferative activity against human T47D cells at 10 uM assessed as cell growth inhibition relative to control
DU-145 = test: Antiproliferative activity against human DU145 cells at 10 uM assessed as cell growth inhibition relative to control

Measured: growth inhibition (GI)

[N-]=[N+]=NC[C@H]1O[C@@H](n2cnc3c(NC(=O)Nc4ccccc4)ncnc32)[C@@H]2OC(=O)C[C@@H]21
inactive: all assays above
